Experimental data as given in patent US5686109A, “Antipyretic analgesic composition” (priority 1993, dated 1997).

System: SD strain rats (pain threshold of right hind leg)
Assay: Pain Removing Effect (Randall-Selitto method, heat edema)
Format: in vivo, rat
Details: 2 h after administration, mean ± standard error, n=10 rats
Experimental: Test substances and doses:
IPA and IBP were respectively suspended in a 0.5% aqueous solution of methylcellulose (MC) to a concentration of 8 mg/ml. The test suspensions for groups 2 and 3 were prepared by mixing the IPA suspension and IBP suspension together in a proportion of 3:1 (group 2) or 1:3 (group 3). The doses used are shown below. Each suspension was orally administered at a volumetric dose of 5 ml/kg.
Group 1: IPA 40 mg/kg+IBP 0 mg/kg
Group 2: IPA 30 mg/kg+IBP 10 mg/kg
Group 3: IPA 10 mg/kg+IBP 30 mg/kg
Group 4: IPA 0 mg/kg +IBP 40 mg/kg
Six-week-old male SD strain rats (Nippon SLC) fasted 24 hours before experiment were used in groups of 10. They were grouped such that the four groups were uniform in mean body weight.
First, the pain threshold value before thermal stimulation was measured (0 hour value). Then, heat edema was caused on the right hind leg of the rat by immersing said leg in hot water (54° C.) just to the fibular ankle (boundary showing sudden change in hair density) for 12 seconds. Two hours later, the pain threshold of the right hind leg was measured (2 hours value), immediately followed by test substance administration. After the lapse of two further hours, the pain threshold of the right hind leg was measured (4 hours value).
The percent pain removal was calculated by the following formula: [formula]

| Compound | Pain removal (%) (IPA 0 mg/kg + IBP 40 mg/kg PO) | Pain removal (%) (IPA 40 mg/kg PO + IBP 0 mg/kg) |
| --- | --- | --- |
| CC(C)Cc1ccc(C(C)C(=O)O)cc1 (centres unmarked) [IBP, 2-(4-isobutylphenyl)propionic acid] | 32.3 ± 7.5 | – |
| Cc1c(C(C)C)c(=O)n(-c2ccccc2)n1C [IPA, 4-isopropyl-2,3-dimethyl-1-phenyl-3-pyrazolin-5-one] | – | 25.8 ± 15.9 |
